In a melting point compilation (Tetko et al.; mined from patent text by program, amines drawn as free bases though some values may be those of a salt):

SMILES | melting point [°C]
COC(=O)Cc1ccc(S(=O)(=O)c2ccc(Cl)cc2)cc1 | 78 to 80
CN1CCC[C@H]1c1cnccc1C(O)(c1ccccc1)c1ccccc1 | 232 to 234
Cc1csc(NC(=O)C2(CN3CCN(c4nc(C)cs4)C3=O)C=CC=CC2)n1 (centres undefined) | 197 to 198
CCCC1CCC(C2CCC(OCCCO)CC2)CC1 (centres undefined) | 110 to 111
Cc1c(NS(=O)(=O)c2ccccc2)cc(C(C)(C)C)cc1SC1=C(O)CC(CCc2ccc(O)cc2)(C2CCCC2)OC1=O (racemic) | 125 to 127
C=C1CSc2sccc2C1=O | 64 to 65
Cc1cc(N2CCN(CCc3ccc(NS(C)(=O)=O)cc3)CC2)ccc1NS(C)(=O)=O | 235 to 237
COC(=O)CCC(NC(=O)CCCC#Cc1cnc2nc(NC(=O)C(C)(C)C)nc(O)c2c1)C(=O)OC (centres undefined) | 159 to 160
Cc1cn(C2CC(ON)C(CO[Si](C)(C)C(C)(C)C)O2)c(=O)[nH]c1=O (centres undefined) | 171
Cc1ccc(C)c(C(=O)NC(C)(C)C)c1 | 80 to 82
CC(=NO)c1ccc(C(F)(F)C(F)(F)c2ccccc2)cc1 | 137 to 139
O=[N+]([O-])c1ccc(C=Cc2nc(Cl)c3ccccc3n2)o1 | 252 to 254
CS(=O)(=O)N1CCC(Nc2ncc3cc(Cc4ccccn4)c(=O)n(C4CCCC4)c3n2)CC1 | 220 to 223
CC(C)(C)OC(=O)N1CC(NC(=O)CNC(=NC(=O)OCc2ccc([N+](=O)[O-])cc2)NC(=O)OCc2ccc([N+](=O)[O-])cc2)C1 | 99 to 101
O=C(Nc1nc(CN2CCC(c3c[nH]c4ccccc34)CC2)cs1)C(F)(F)F | 244 to 247
Nc1nccc(-c2c(-c3ccc(F)cc3)ncn2C2CCNCC2)n1 | 199 to 200
Fc1cc(CC2(Cc3ccnc(F)c3)c3cccnc3-c3sccc32)ccn1 | 157 to 159
O=C(Nc1cccc(-c2ccnc3c(C(=O)c4cccs4)cnn23)c1)c1c(Cl)cccc1Cl | 245 to 246
CC(=O)NC[C@H]1CN(c2ccc(C(=O)c3cnc4nc(C)cc(C)n34)cc2)C(=O)O1 | 253 to 254
CC(=O)NC[C@H]1CN(c2ccc(N3CCC(C#N)(Nc4ccc(C#N)cc4)CC3)c(F)c2)C(=O)O1 | 210 to 212
NC(=S)Nc1cc(C(F)(F)F)ccc1N1CCOCC1 | 196 to 197
C[C@H]1CC[C@H]2C(C)(C)[C@@H](O)CC[C@]23Oc2c(c(O)cc4c2CN(C)C4=O)C[C@]13C | 205 to 210
CCCCOc1ccc2c(c1)CCC(C(=O)O)=C2 | 148 to 150

SMILES | melting point [°C]
CCOC(=O)COc1cc2onc(-c3ccccc3F)c2cc1Br | 130 to 132
CC(=O)OCCSc1nc(C(C)(C)C)nn1C(=O)N(C)C | 110 to 112
CCc1nc2c(C)cc(C)nc2n1Cc1ccc(C(=Cc2nnn[nH]2)c2ccccc2Cl)cc1 | 28
O=C(CCl)Nc1ccccc1C(=O)c1ccccc1C(F)(F)F | 79 to 81
CCc1noc(-c2cn(-c3ccccn3)cn2)n1 | 162 to 163
NC(=O)c1nccn1C1Cc2cc(-n3ccnc3)ccc2C1=O (centres undefined) | 140
C[C@]1(CN2CCC(NC(=O)OCc3ccc(C(F)(F)F)cc3)CC2)Cn2cc([N+](=O)[O-])nc2O1 | 141 to 144
CCOC(=O)[C@H](CSC[C@H](Cc1ccccc1)NC(=O)OCc1ccccc1)N[C@@H](C)C(=O)O | 124 to 127
COc1cc(CCCC2OC(=O)NC2=O)ccc1OCc1coc(CCc2ccccc2)n1 (centres undefined) | 122 to 123
COC(=O)c1cccc(-c2nnc(-c3ccc(C(C)C)cc3)o2)c1 | 74 to 77
N#CCc1cc(N)c(F)cc1Cl | 85 to 86
CCCCCCC1OC(=O)c2cc(NC(C)=O)ccc21 (centres undefined) | 135 to 137
CCCC1Cc2cc(OCC(=O)O)c(Cl)c(Cl)c2C1=O (centres undefined) | 199 to 203
CCCOc1ccc(S(=O)(=O)NC[C@@H](C(=O)NO)N2CCN(S(C)(=O)=O)CC2)cc1 | 137
O=c1[nH]c(C2CCNCC2)nc2ccccc12 | 244 to 245
CCN1CCN(Cc2ccc(CCn3cnc4cc(-c5ccc(Cl)cc5)sc4c3=O)cc2)C(=O)C1=O | 285 to 288
CC(C)=CCOc1ccc(C(=O)C=Cc2ccco2)c(O)c1 | 75 to 77
COc1ccccc1-c1c(C2CCN(C)CC2)[nH]c(=O)c2ccccc12 | 153 to 155
CSc1cc2c(cc1C(F)(F)F)N(C(=O)Nc1ccc(C(=O)Nc3cccnc3)cc1)CC2 | > 200
OCC1OC(n2c(Br)nc3c(NCc4ccccc4)ncnc32)C(O)C1O (centres undefined) | 96 to 98
O=S1(=O)NCc2cccc(Cl)c21 | 159 to 161
CC(=O)Nc1ccc(OCCCBr)cc1 | 120
CC#CCOc1ccc(SC(C(=O)NO)C2CCCCC2)cc1 (centres undefined) | 163

SMILES | melting point [°C]
CC(C)N1C(CN2CCOCC2)=Cc2cc(S(N)(=O)=O)sc2S1(=O)=O | 196 to 198
CC(C)OC(=O)C1=C2SCC(=CC(=O)N3CCCCC3)N2CC1 | 128 to 130
O=C(Nc1nc(=O)n(S(=O)(=O)c2ccccc2)cc1F)c1ccccc1 | 150 to 151
CC(=O)Nc1cccc2c1CCNC2=O | 244 to 246
O=C(O)c1cc(C(c2cc(F)ccc2F)S(=O)(=O)c2ccc(Cl)cc2)c(F)cn1 (centres undefined) | 208 to 209
O=c1c2ccc(Cl)cc2[nH]c2c(O)nn(C3CCCc4ccccc43)c(=O)c12 (racemic) | > 300
COC(=O)C1=Cc2cc(Br)cnc2N(CC(C)C)CCC1 | 79.5 to 80.5
COC(=O)c1cc(Cl)c(-n2[nH]c(N)cc2=O)c(Cl)c1 | 225 to 229
CC(=O)c1ccc2c(c1)ncn2-c1cccc(-c2ccccn2)c1 | 158 to 159
O=C(Nc1ccc(Oc2ccnc(N3CCCC(O)C3)n2)c2ccccc12)c1cc(F)cc(N2CCOCC2)c1 (centres undefined) | 180 to 181
O=C(O)CN1CC2(CCCCC2)CC1=O | 122 to 124
CS(=O)(=O)c1ccc(-c2cnn(-c3ccc(F)c(F)c3)c(=O)c2Cc2ccc(F)c(F)c2)cc1 | 177 to 179
CCOC(=O)CCCNc1ccc(OCC(C)(C)C)c(C#N)c1 | 88
CCC(O)(CC(=O)OC)c1cc2n(c(=O)c1COC)Cc1cc3ccccc3nc1-2 (centres undefined) | 163 to 166
O=C(Oc1ccc([N+](=O)[O-])cc1)C(=O)N1CCOC1=O | 159
C[C@@H]1CN(C(=O)[C@@](C)(O)C(F)(F)F)[C@@H](C)CN1S(=O)(=O)c1ccc(C#N)cc1 | 186 to 187
O=[N+]([O-])c1ccc2nc(-c3ccccc3)sc2c1 | 179 to 181
CCCCCCCCCCOc1c(Br)sc(-c2nc3ccccc3s2)c1OCCCCCCCCCC | 42 to 43
CC(C)(C)c1nc2c(Cl)ccc(-n3c(=O)cc(C(F)(F)F)n(N)c3=O)c2o1 | 104 to 106
CCOC(=O)C(C#N)=CC1C=C(OC)C(C(=O)OC)=C(OC)C1 (centres undefined) | 119 to 121
O=C(O)Cc1nn(CC(=O)Nc2cc(C(F)(F)F)ccc2Br)c(=O)c2ccccc12 | 200 to 202
O=C(O)c1ccc(C=Cc2ccccc2)cc1 | 252
C[Si](C)(C)c1cc(Cl)sc1C(=O)NCCOS(C)(=O)=O | 82 to 86
